Values quoted from earlier work as cited in patent publication US10143669B2, “Use of short chain fatty acids in cancer prevention” (Temple University-Of The Commonwealth System of Higher …, priority 2015, dated 2018).

What was measured:
established tumor = conditions: Bindels L B et al., Br J Cancer, 2012
HBx transgenic mice = conditions: Arzumanyan A et al., Cancer Res, 2012
[1] = system: Hepatocellular carcinoma (HCC); conditions: Peck-Radosavljevic M, Liver Cancer, 2014

CCC(=O)O [proprionate]
growth of an established tumor (established tumor): reduce the growth

CS(=O)(=O)c1ccc(C(=O)Nc2ccc(Cl)c(-c3ccccn3)c2)c(Cl)c1 [GDC-0449]
number and size of tumors in HBx transgenic mice (HBx transgenic mice): decreased the number and size of tumors

CNC(=O)c1cc(Oc2ccc(NC(=O)Nc3ccc(Cl)c(C(F)(F)F)c3)cc2)ccn1 [sorafenib]
life expectancy extended, average [1]: 3 months
